{"source": "patent US5843941A", "about": "“Ras farnesyl transferase inhibitors” (Genentech, Inc., priority 1994, dated 1998)", "type_in_all_cases": "cell-based", "key": {"[1]": {"system": "ras-transformed rat-1 fibroblasts", "test": "Cell growth of ras-transformed rat-1 fibroblasts", "settings": "Fibroblast, 240 h, 10 days, FIG. 7 Panel B", "experimental": "(§1) To examine the effects of farnesyltransferase inhibition on cell growth, three cell lines (ras-transformed rat-1, src-transformed rat-1, and parental rat-1 cells) were seeded (see FIG. 7) at low density and allowed to grow for 10 days in the absence or presence of increasing concentrations of BZA-5B (compound 37). See Example 128 for description of cells. On day 0, cells were plated in monolayer culture at 2×10^3 cells per well (24-well plates) in 1 ml DMEM supplemented with 10% fetal calf serum, 100 U/ml penicillin, 100 μg/ml streptomycin, 0.5 mM DTT, 0.025% DMSO, and the indicated concentration of BZA-5B (compound 37). On days 3 and 7, cells were washed and refed with the same medium. At the time indicated in FIG. 7, cells were harvested by trypsinization and counted in a Coulter counter. Panels A, C, E show the growth rate of each cell line in the absence of inhibitor. Panels B, D, F show the inhibition of growth as a function of concentration of BZA-5B at each time point. The \"100% values\" correspond to the appropriate cell numbers in Panels A, C, E at the indicated time. Each value represents a single incubation. As shown in the panels A, C, and E, all three cell lines grew logarithmically with no added inhibitor. […] The growth of src-transformed (Panel D) and untransformed cells (Panel F) were not affected at concentrations of BZA-5B up to 25 μM."}, "[2]": {"system": "untransformed parental rat-1 fibroblasts", "test": "Cell growth of untransformed parental rat-1 fibroblasts", "settings": "up to 25 μM; FIG. 7 Panel F", "experimental": "as §1"}, "[3]": {"system": "src-transformed rat-1 fibroblasts", "test": "Cell growth of src-transformed rat-1 fibroblasts", "settings": "up to 25 μM; FIG. 7 Panel D", "experimental": "as §1"}}, "data": [{"smiles": "COC(=O)[C@H](CCSC)NC(=O)CN1C(=O)C(N(C)C(=O)[C@@H](N)CS)N=C(c2ccccc2)c2ccccc21", "note": "(stereo partly drawn) [BZA-5B]", "values": [{"measurement": "inhibition at 25 µM", "setting": "[1]", "result": "~90", "unit": "%"}, {"measurement": "growth of untransformed cells", "setting": "[2]", "result": "not affected"}, {"measurement": "growth of src-transformed cells", "setting": "[3]", "result": "not affected"}]}]}
